Patent publication US11572590B2, “Methods for evaluating tumor cell spheroids using 3D microfluidic cell culture device” (Dana-Farber Cancer Institute, Inc., priority 2017, dated 2023)
Read-outs that look alike come from different tables or passages of the source.

Legend:
[1] = target: T1, off-target kinases (Homo sapiens, UniProt P51813); assay: SelectScreen Kinase Profiling, single point inhibition and IC50 for off-target kinases; assay type: biochemical; conditions: BMX, ZLYTE, ATP Km app
T1 sequence (P51813 1-675): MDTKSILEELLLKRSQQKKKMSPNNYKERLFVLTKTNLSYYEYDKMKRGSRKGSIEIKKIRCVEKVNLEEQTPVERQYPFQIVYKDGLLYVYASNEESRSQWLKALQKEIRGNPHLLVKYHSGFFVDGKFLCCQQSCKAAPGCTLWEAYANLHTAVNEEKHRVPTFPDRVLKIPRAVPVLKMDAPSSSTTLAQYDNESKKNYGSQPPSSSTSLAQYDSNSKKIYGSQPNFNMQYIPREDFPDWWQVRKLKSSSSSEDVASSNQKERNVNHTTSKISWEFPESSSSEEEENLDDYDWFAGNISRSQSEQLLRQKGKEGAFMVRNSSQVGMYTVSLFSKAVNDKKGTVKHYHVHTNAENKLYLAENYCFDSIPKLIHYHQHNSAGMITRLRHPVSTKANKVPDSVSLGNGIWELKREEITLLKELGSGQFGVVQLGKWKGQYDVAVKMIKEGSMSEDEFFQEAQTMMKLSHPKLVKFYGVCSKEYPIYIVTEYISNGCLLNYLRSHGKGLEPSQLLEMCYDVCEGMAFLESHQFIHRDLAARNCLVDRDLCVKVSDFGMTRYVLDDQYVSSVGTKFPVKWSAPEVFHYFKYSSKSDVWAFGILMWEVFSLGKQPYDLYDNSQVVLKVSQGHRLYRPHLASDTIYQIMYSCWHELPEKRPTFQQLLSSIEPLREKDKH

[2] = target: T2, off-target kinases (Homo sapiens, UniProt Q9UL54); assay: as above; assay type: biochemical; conditions: TAOK2 (TAO1), ZLYTE, ATP Km app
T2 sequence (Q9UL54 1-1235): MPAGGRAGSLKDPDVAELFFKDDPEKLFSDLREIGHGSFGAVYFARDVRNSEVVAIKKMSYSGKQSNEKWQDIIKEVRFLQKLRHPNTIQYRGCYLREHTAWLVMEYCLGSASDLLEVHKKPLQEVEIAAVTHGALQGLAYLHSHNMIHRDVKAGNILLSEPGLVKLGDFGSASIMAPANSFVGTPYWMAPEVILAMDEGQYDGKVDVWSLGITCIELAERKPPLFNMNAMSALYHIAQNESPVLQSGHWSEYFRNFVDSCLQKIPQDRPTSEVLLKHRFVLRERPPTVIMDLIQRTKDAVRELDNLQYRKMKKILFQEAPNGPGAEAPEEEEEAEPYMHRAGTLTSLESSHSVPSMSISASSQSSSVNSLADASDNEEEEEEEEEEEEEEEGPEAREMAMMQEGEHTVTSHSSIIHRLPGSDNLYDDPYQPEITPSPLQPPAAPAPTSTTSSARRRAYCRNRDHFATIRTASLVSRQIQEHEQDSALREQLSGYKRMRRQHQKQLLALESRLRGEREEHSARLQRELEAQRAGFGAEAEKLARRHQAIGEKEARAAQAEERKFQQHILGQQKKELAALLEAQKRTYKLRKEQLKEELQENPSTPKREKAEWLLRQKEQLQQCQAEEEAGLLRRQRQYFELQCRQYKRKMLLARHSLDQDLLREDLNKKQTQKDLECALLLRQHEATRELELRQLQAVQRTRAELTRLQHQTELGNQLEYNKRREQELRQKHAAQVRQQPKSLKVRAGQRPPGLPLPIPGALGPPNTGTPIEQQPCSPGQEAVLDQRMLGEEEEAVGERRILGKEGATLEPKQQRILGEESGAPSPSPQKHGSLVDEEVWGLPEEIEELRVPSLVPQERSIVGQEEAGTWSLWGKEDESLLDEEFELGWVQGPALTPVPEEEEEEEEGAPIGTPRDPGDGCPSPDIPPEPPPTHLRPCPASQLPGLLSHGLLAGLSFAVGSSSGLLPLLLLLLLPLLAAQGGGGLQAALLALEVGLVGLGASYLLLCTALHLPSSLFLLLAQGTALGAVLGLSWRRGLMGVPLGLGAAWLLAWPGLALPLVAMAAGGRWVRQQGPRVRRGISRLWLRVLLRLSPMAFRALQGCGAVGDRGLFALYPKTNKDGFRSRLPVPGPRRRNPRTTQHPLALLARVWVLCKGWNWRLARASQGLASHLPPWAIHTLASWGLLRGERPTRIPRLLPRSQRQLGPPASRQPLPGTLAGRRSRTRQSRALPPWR

## N#Cc1cc(-c2ncnc(Nc3ccc(N4CCN(C5COC5)CC4)cc3)n2)ccc1OC1CCOCC1 [Compound 1, 5-(4-((4-(4-(oxetan-3-yl)piperazin-1-yl)phenyl)amino)-1,3,5-triazin-2-yl)-2-((tetrahydro-2H-pyran-4-yl)oxy)benzonitrile]
[1]; read-out: % Inhibition 1
  inhibition: 12%
[1]; read-out: % Inhibition 2
  inhibition: 13%
[1]; read-out: % Inhibition Avg
  inhibition: 12%
[2]; read-out: % Inhibition 1
  inhibition: 3%
[2]; read-out: % Inhibition 2
  inhibition: 6%
[2]; read-out: % Inhibition Avg
  inhibition: 5%
